Assay [1] has as its target T1, transthyretin (TTR) (Homo sapiens, UniProt P02766).
T1 construct: purchased Sigma Aldrich P1742
In kind it is binding.

Assay [2] has as its target SARS-CoV-2 M^pro (Severe acute respiratory syndrome coronavirus 2, UniProt P0DTD1). In words: TRIP screening of M^pro inhibitor binding and binding strength/affinity. The note with it: 1 μM vs 5 μM M^pro mixes.
Assay [3] deals with streptavidin (Streptomyces avidinii, UniProt P22629). In kind it is binding.
Sequence of streptavidin (P22629 37-163): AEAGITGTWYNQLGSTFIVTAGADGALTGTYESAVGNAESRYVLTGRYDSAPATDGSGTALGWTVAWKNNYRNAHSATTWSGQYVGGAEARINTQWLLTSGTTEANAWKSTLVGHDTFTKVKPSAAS

Turning to `O=[N+]([O-])c1ccc(O)c([N+](=O)[O-])c1` [DNP, 2,4 dinitrophenol], in assay [1], the “binding between DNP and TTR over time (PC2 of 1230-1350 cm^-1 region)” value is listed as “enhanced over time”. Consider `Nc1nnc(Sc2ncc([N+](=O)[O-])s2)s1` [Halicin], for which, in assay [2], the “affinity for monomer M^pro versus dimer / dimer-monomer M^pro mix” value is listed as “higher affinity for binding monomeric M^pro”. Turning to `O=C(O)CCCC[C@@H]1SC[C@@H]2NC(=O)N[C@@H]21` [biotin], in assay [3], the “binding of biotin to streptavidin (Trp N-H band shift 877 to 870 cm^-1)” value is recorded as “strong hydrogen bonding occurred”.

Source of the values: patent publication US20240353338A1 (priority 2023, published 2024).
